{"source": "patent US20240189268A1", "about": "“SESQUITERPENE DERIVATIVE OR PHARMACEUTICALLY ACCEPTABLE SALT THEREOF AND USE THEREOF” (MFC CO., LTD., priority 2021, published 2024)", "key": {"aging mice [1]": {"system": "aging mice", "assay": "Grip strength of aging mice", "type": "in vivo", "conditions": "for grip strength (muscle strength of forelimbs and hindlimbs): 24 to 25-month-old mice, once a week for 16 weeks, vs Control group", "method": "In addition, the muscle strengths of the forelimbs and hindlimbs of 24 to 25-month-old mice were evaluated for the three groups using a grip strength measuring machine, and the evaluation was conducted once a week for 16 weeks."}, "promoter of MSTN": {"system": "promoter of MSTN", "assay": "pMSTN_luc luciferase assay (MSTN promoter activity)", "type": "cell-based", "conditions": "for MSTN promoter activity (luciferase) after Doxorubicin: pretreated 3 hours (1-1: 1, 3, 10 μM; 1-2: 1, 3, 10, 30 μM), vs Doxorubicin alone", "method": "After 12 hours of transfection with 1 μg of a pMSTN_luc vector (myostatin; new plasmid vector generated by inserting a promoter region of a MSTN gene into a plasmid vector (pGL4.15 vector) capable of luciferase experiment), Compound 1-1 (MFC-1) was pretreated (1, 3, and 10 μM) for 3 hours, respectively. Thereafter, luciferase activity was measured by harvesting after treatment with 0.5 μg/ml of an anticancer agent Doxorubicin for 6 hours. The results were illustrated in FIG. 1B.\n(Meanwhile, the luciferase assay used in FIG. 1B was an assay of transfecting a luciferase vector into a cell, treating a drug, and then treating luciferin to measure the amount of light emitted by the activation of the promoter of the gene by the drug. This means that it is possible to determine whether the promoter was activated and that the gene may be regulated at the transcriptional level by the drug touching the promoter region.)\nAfter 12 hours of transfection with 1 μg of the pMSTN_luc vector, Compound 1-2 (MFC-2) was pretreated (1, 3, 10, and 30 μM) for 3 hours, respectively. Thereafter, the luciferase activity was measured by harvesting after treatment with Doxorubicin 0.5 μg/ml for 6 hours. The results were illustrated in FIG. 1C.\nCedrol (Reference) and Compound 1-2 (MFC-2) were each treated (3 μM), respectively, and harvested 12 hours later to measure luciferase activity (FIG. 3J)."}, "Myostatin": {"system": "Myostatin", "assay": "qRT-PCR of EDL muscle tissue of aging mice: myostatin", "type": "in vivo", "conditions": "vs Control group, listed as MFC-2", "description": "(§1) MuRF1 (muscle RING-finger protein 1) was a muscle-specific E3 ubiquitin ligase and a type of atrogene causing sarcopenia, and it was confirmed that the expression of Myostatin and MuRF1 was reduced in the EDL muscle tissue of the group fed with Compound MFC-2."}, "aging mice [2]": {"system": "aging mice", "assay": "Muscle size (GC, TA, EDL) of aging mice fed compound", "type": "in vivo", "conditions": "21-month-old aging mice, in feed for 3 months; vs Control group", "method": "21-month-old aging mice were fed with regular feed (Control), feed containing Cedrol (Reference), and feed containing Compound 1-2 (MFC-2) for 3 months for each group, and thereafter, an animal experiment was conducted to compare the sizes of the Gastrocnemius muscle (GC), Tibialis anterior (TA), and Extensor digitorum longus (EDL) muscles separated from the hind limbs of aging mice."}, "NF-κB promoter": {"system": "NF-κB promoter", "assay": "pNF-κB luciferase assay (NF-κB promoter activity)", "type": "cell-based", "method": "NF-κB was a transcription factor binding to a promoter region of a myostatin gene, a muscle mass regulation target protein, and to determine whether NF-κB was involved in the regulation of myostatin expression of Compound MFC-2, after 12 hours of transfection with 1 μg of the pNF-κB vector, Compound 1-2 (MFC-2) was treated (3 μM) for 12 hours. Thereafter, the luciferase activity was measured by harvesting (FIG. 3H). For reference, pGL3 and pGL4.15 shown in FIG. 3 were a type of luciferase plasmid vector, and the vector itself without the gene inserted was used as Control (control group). The vector in which the promoter region of the NF-κB gene was inserted into the luciferase vector was expressed as pNF-κB.\nAfter 12 hours of transfection with 1 μg of the pNF-κB vector, Compound 1-2 (MFC-2) was pretreated (3 μM) for 3 hours. Thereafter, 0.5 μg/ml of Doxorubicin was treated for 6 hours, harvested, and luciferase activity was measured (FIG. 3I)."}, "[3]": {"assay": "Animal blood analysis of aging mice (CK, LDH, AST, TG)", "type": "in vivo", "method": "For the Control group, Reference group, and MFC-2 group, an animal blood analysis experiment was conducted on aging mice. As a result, it was confirmed that the serum CK level of creatine kinase (CK), which was an enzyme contained in skeletal muscle, myocardium, smooth muscle, etc. to be released into the blood when the muscle was damaged, decreased in the MFC-2 group compared to other groups (FIG. 5A)."}, "MuRF1": {"system": "MuRF1", "assay": "qRT-PCR of EDL muscle tissue of aging mice: MuRF1", "type": "in vivo", "description": "as §1"}, "[4]": {"conditions": "then Doxorubicin 0.5 μg/ml 6 hours"}, "[5]": {"conditions": "aging mice blood, compared to other groups"}, "[6]": {"conditions": "Doxorubicin 0.5 μg/ml for 6 hours, alone"}}, "note": "Entries after “also recorded” stand apart in the source; their conditions may differ.", "data": [{"smiles": "C[C@@H]1CC[C@H]2C(C)(C)[C@H]3C[C@@]12CC[C@@]3(C)O", "note": "[Cedrol, reference compound]", "values": [{"measurement": "grip strength (muscle strength of forelimbs and hindlimbs)", "setting": "aging mice [1]", "value": "gradually increased compared to the Control group"}]}, {"smiles": "COc1cc(C(=O)O[C@]2(C)CC[C@@]34C[C@@H]2C(C)(C)[C@@H]3CC[C@H]4C)ccc1O", "note": "[Compound 1-1, (3R,3aS,6R,7R,8aS)-3,6,8,8-tetramethyloctahydro-1H-3a,7-metanoazulen-6-yl-4-hydroxy-3-methoxybenzoate]", "values": [{"measurement": "MSTN promoter activity (luciferase) after Doxorubicin", "setting": "promoter of MSTN; [4]", "value": "lower expression level than a group treated with Doxorubicin alone"}]}, {"smiles": "COc1cc(C(=O)O[C@]2(C)CC[C@@]34C[C@@H]2C(C)(C)[C@@H]3CC[C@H]4C)ccc1OC(C)=O", "note": "[Compound 1-2, (3R,3aS,6R,7R,8aS)-3,6,8,8-tetramethyloctahydro-1H-3a,7-methanoazulen-6-yl-4-acetoxy-3-methoxybenzoate]", "values": [{"measurement": "myostatin mRNA expression in EDL muscle tissue", "setting": "Myostatin", "value": "significantly decreased compared to the Control group; also recorded: reduced"}, {"measurement": "muscle size (GC, TA, EDL)", "setting": "aging mice [2]", "value": "increase in muscle size"}, {"measurement": "grip strength (muscle strength of forelimbs and hindlimbs)", "setting": "aging mice [1]; listed as MFC-2", "value": "gradually increased compared to the Control group"}, {"measurement": "grip strength compared to Reference group (Cedrol)", "setting": "aging mice [1]; aging mice, from week 15", "value": "increased compared to the Reference group from week 15 later"}, {"measurement": "NF-κB promoter activity (luciferase)", "setting": "NF-κB promoter; 3 μM for 12 hours, no Doxorubicin", "value": "reduces NF-κB promoter activity"}, {"measurement": "NF-κB promoter activity (luciferase) after Doxorubicin", "setting": "NF-κB promoter; pretreated 3 μM 3 hours, then Doxorubicin 0.5 μg/ml 6 hours, vs Doxorubicin alone", "value": "lower expression level than the group treated with Doxorubicin alone"}, {"measurement": "LDH level", "setting": "[3]; aging mice blood, compared to Control group", "value": "decrease in LDH level"}, {"measurement": "AST level", "setting": "[3]; [5]", "value": "decrease in the levels thereof"}, {"measurement": "TG level", "setting": "[3]; [5]", "value": "decrease in the levels thereof"}, {"measurement": "serum CK level", "setting": "[3]; aging mice, compared to other groups", "value": "decreased"}, {"measurement": "MuRF1 mRNA expression in EDL muscle tissue", "setting": "MuRF1", "value": "reduced"}, {"measurement": "pMSTN-luciferase activity", "setting": "promoter of MSTN; 3 μM, harvested 12 hours later, compared with Cedrol", "value": "reduced pMSTN-luciferase activity more effectively than existing Cedrol (Reference)"}, {"measurement": "MSTN promoter activity (luciferase) after Doxorubicin", "setting": "promoter of MSTN; [4]", "value": "lower expression level than the group treated with Doxorubicin alone"}, {"measurement": "inhibitory effect on MSTN promoter activity compared with Compound 1-1", "setting": "promoter of MSTN; pretreatment, then Doxorubicin 0.5 μg/ml 6 hours", "value": "greater inhibitory effect than Compound 1-1 (MFC-1)"}]}, {"smiles": "COc1cccc2c1C(=O)c1c(O)c3c(c(O)c1C2=O)C[C@@](O)(C(=O)CO)C[C@@H]3O[C@H]1C[C@H](N)[C@H](O)[C@H](C)O1", "note": "[Doxorubicin, reference compound]", "values": [{"measurement": "NF-κB promoter activity (luciferase)", "setting": "NF-κB promoter; [6]", "value": "increased"}, {"measurement": "MSTN promoter activity (luciferase)", "setting": "promoter of MSTN; [6]", "value": "rapidly increased"}]}]}
